In patent US20250270227A1, “CAMPTOTHECIN DERIVATIVE, AND PHARMACEUTICAL COMPOSITION AND USE THEREOF” (SIMCERE ZAIMING PHARMACEUTICAL CO., LTD., priority 2021, published 2025):
Like-named read-outs stand apart in the source and are kept apart here.

Legend:
Format in all cases: cell-based
[1] = test system: Human colorectal cancer cell line HCT116; assay: Test 1 of anti-proliferative activity against tumor cells (Cell-Titer Glo)
In short: (§1)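 HCT116, SKBR3 and OVCAR3 cells seeded 24 h, then treated with 9-point 3-fold dilutions (final 0-300 nM); HCT116 incubated 3 days, SKBR3 and OVCAR3 5 days at 37° C, 5% CO2. Viability by Cell-Titer Glo luminescence, inhibition normalised to DMSO and no-cell wells, IC50 fitted.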

[2] = test system: human ovarian cancer cell line OVCAR3; assay: as above
In short: as §1

[3] = test system: human small cell lung cancer cell line NCI-H82; assay: Test 2 of anti-proliferative activity against tumor cells (Cell-Titer Glo); settings: Homo sapiens, NCI-H82, 120 h, read-out: NCI-H82 Anti-proliferative activity IC50 (nM), NCI-H82 cells, 5 days, Cell-Titer Glo
Method: (§2) Cell culture: SK-OV-3 cells were cultured in McCoy's 5a medium containing 10% fetal bovine serum+1% penicillin-streptomycin, PA-1 cells were cultured in MEM medium containing 10% fetal bovine serum+1% MEM NEAA+1% sodium pyruvate+1% penicillin-streptomycin, NCI-H82 cells and MDA-MB-231 cells were cultured in 1640 medium containing 10% fetal bovine serum+1% penicillin-streptomycin, A549 cells were cultured in DMEM medium containing 10% fetal bovine serum+1% penicillin-streptomycin, all under conditions of 37° C. and 5% CO2. Cells in logarithmic growth phase were suitable for the experiment.
(§3) Detection of cell proliferation activity: The inhibitory activity of the compounds on the proliferation of the five cell lines SK-OV-3, PA-1, NCI-H82, MDA-MB-231 and A549 was detected using Cell-Titer Glo reagent. SK-OV-3 cell (1000 cells per well), PA-1 cells (800 cells per well), NCI-H82 cells (5000 cells per well), MDA-MB-231 cells (3000 cells per well) and A549 cells (400 cells per well) were seeded in 96-well plates and cultured at 37° C. and 5% CO2 for 24 h. The compound to be tested was dissolved in DMSO to a concentration of 1 mM, then subjected to gradient dilution with DMSO and corresponding medium, and transferred to 96-well cell plates to a final concentration of 300 nM (initial concentration), with 3-fold dilution and a total of 9 concentration points. The cells were cultured at 37° C. and 5% CO2 for additional 5 days. The cell viability was detected by adding Cell-Titer Glo reagent.
(§4) Additionally, a negative control group and a positive control group were provided as Bottom and Top, respectively. In the negative control group, the cells were not added, only the same volume of medium was added, and other operations were consistent with those in the experimental group; in the positive control group, the test compound was not added, only the same volume of DMSO was added, and other operations were consistent with those in the experimental group.
(§5) Data analysis: The % compound inhibition was calculated, and fitting was performed to obtain IC50 of the compound.
(§6) % Compound inhibition=1−100%*(Signal−Bottom)/(Top−Bottom).
(§7) Signal represents the signal value of the experimental group, Bottom represents the average signal value of the negative control group, and Top represents the average signal value of the positive control group.

[4] = test system: human non-small cell lung cancer cell line A549; assay: as above
Method: as §2, §3, §4, §5, §6, §7

[5] = test system: human ovarian cancer cell line PA-1; assay: as above
Method: as §2, §3, §4, §5, §6, §7

[6] = test system: human breast cancer cell line MDA-MB-231; assay: as above
Method: as §2, §3, §4, §5, §6, §7

[7] = test system: Human ovarian cancer cell line SK-OV-3; assay: as above
Method: as §2, §3, §4, §5, §6, §7

[8] = test system: human breast cancer cell line SKBR3; assay: Test 1 of anti-proliferative activity against tumor cells (Cell-Titer Glo); settings: SKBR3 cells, cultured 5 days with compound, Cell-Titer Glo; read-out: SKBR3 Anti-proliferative activity IC50
In short: as §1

## CC[C@@]1(O)C(=O)OCc2c1cc1n(c2=O)Cc2c-1nc1cc3c(c(Cl)c1c2CNC(=O)CO)OCO3 [Compound 31, (S)-N-((15-chloro-7-ethyl-7-hydroxy-8,11-dioxo-7,8,11,13-tetrahydro-10H-[1,3]dioxolo[4,5-g]pyrano[3′,4′:6,7]indolizino[1,2-b]quinolin-14-yl)methyl)-2-hydroxyacetamide]
[1]; Homo sapiens, HCT-116, 72 h, read-out: HCT116 Anti-proliferative activity IC50 (nM), HCT116 cells, cultured 3 days with compound, Cell-Titer Glo
  IC50: 1.2 nM
[2]; Homo sapiens, OVCAR-3, 120 h, read-out: OVCAR3 Anti-proliferative activity IC50 (nM)
  IC50: 0.2 nM
[3]
  IC50: 4 nM
[4]; Homo sapiens, A549, 120 h, read-out: A549 Anti-proliferative activity IC50 (nM), A549 cells, 5 days, Cell-Titer Glo
  IC50: 15.9 nM
[5]; Homo sapiens, PA-1, 120 h, read-out: PA-1 Anti-proliferative activity IC50 (nM), PA-1 cells, 5 days, Cell-Titer Glo
  IC50: 1.7 nM
[6]; Homo sapiens, MDA-MB-231, 120 h, read-out: MDA-MB-231 Anti-proliferative activity IC50 (nM)
  IC50: 13.5 nM
[7]; Homo sapiens, SK-OV-3, 120 h, read-out: SK-OV-3 Anti-proliferative activity IC50 (nM)
  IC50: 12.3 nM

## [2H]C1([2H])Oc2cc3nc4c(c(CNC(=O)[C@@H](O)C5CC5)c3cc2O1)Cn1c-4cc2c(c1=O)COC(=O)[C@]2(O)CC [Compound 39-P2, 2-cyclopropyl-N-(((S)-7-ethyl-7-hydroxy-8,11-dioxo-7,8,11,13-tetrahydro-10H-[1,3]dioxolo[4,5-g]pyrano[3′,4′:6,7]indolizino[1,2-b]quinolin-14-yl-2,2-d2)methyl)-2-hydroxyacetamide]
[1]; HCT116 cells, cultured 3 days with compound, Cell-Titer Glo, read-out: HCT116 Anti-proliferative activity IC50
  IC50: 6.5 nM
[2]; OVCAR3 cells, cultured 5 days with compound, Cell-Titer Glo, read-out: OVCAR3 Anti-proliferative activity IC50
  IC50: 1 nM
[8]
  IC50: 2.9 nM
[4]; A549 cells, 5 days, Cell-Titer Glo, read-out: A549 Anti-proliferative activity IC50
  IC50: 15.7 nM
[5]; PA-1 cells, 5 days, Cell-Titer Glo, read-out: PA-1 Anti-proliferative activity IC50
  IC50: 1.2 nM
[6]; MDA-MB-231 cells, 5 days, Cell-Titer Glo, read-out: MDA-MB-231 Anti-proliferative activity IC50
  IC50: 23.2 nM
[7]; SK-OV-3 cells, 5 days, Cell-Titer Glo, read-out: SK-OV-3 Anti-proliferative activity IC50
  IC50: 2.1 nM
